# Assay results from patent US20020137929A1, “1 - (3-heterocyclylphenyl) isothiourea, -isourea, -guanidine and -amidine herbicidal agents” (Intellectual Property Department, BASF Aktiengesellschaft, priority 1998, published 2002).
# Assays:
# [1] = tested on: CASOB (Sicklepod); experiment: Postemergence herbicidal evaluation; type: in vivo, Cassia obtusifolia; conditions: postemergence
# Outline: (§1)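 Visual 0-9 injury score (stand, vigor, malformation, size, chlorosis, appearance vs untreated) taken four to five weeks post-spray, averaged across repeat tests. Test plants about two weeks old; foliar spray of acetone/water (1:1) with 0.5% surfactant delivering ~0.0156-0.500 kg active/ha.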
# [2] = tested on: CHEAL (Lambsquarters, Common); experiment: Postemergence herbicidal evaluation; type: in vivo, Chenopodium album; conditions: postemergence
# Outline: as §1
# [3] = tested on: GALAP (Galium); experiment: Postemergence herbicidal evaluation; type: in vivo, Galium aparine; conditions: postemergence
# Outline: as §1
# [4] = tested on: ORYSAT (Rice, Tebonnet); experiment: Postemergence herbicidal evaluation; type: in vivo, Oryza sativa, (L.) Tebonnet; conditions: postemergence
# Outline: as §1
# [5] = tested on: ZEAMX (Corn, Field); experiment: Postemergence herbicidal evaluation; type: in vivo, Zea mays; conditions: postemergence
# Outline: as §1
# [6] = tested on: AMBEL (Ragweed, Common); experiment: Preemergence herbicidal evaluation; type: in vivo, Ambrosia artemisifolia; conditions: rated 4-5 weeks after treatment
# Outline: (§2)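 Scores (0–9) reflect visual comparison with control plants for stand, vigor, malformation, size and chlorosis. Compound was applied to the soil after sowing, before emergence, as an aqueous acetone spray (about 0.0156–0.500 kg/ha), and cups were kept in a greenhouse for 4–5 weeks.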
# [7] = tested on: SETVI (Foxtail, Green); experiment: Preemergence herbicidal evaluation; type: in vivo, Setaria viridis; conditions: rated 4-5 weeks after treatment
# Outline: as §2
# [8] = tested on: GLXMAW (Soybean, Williams); experiment: Preemergence herbicidal evaluation; type: in vivo, Glycine max, (L.) Merr. cv Williams; conditions: rated 4-5 weeks after treatment
# Outline: as §2
# [9] = tested on: ORYSAT (Rice, Tebonnet); experiment: Preemergence herbicidal evaluation; type: in vivo, Oryza sativa, (L.) Tebonnet; conditions: rated 4-5 weeks after treatment
# Outline: as §2
# [10] = tested on: CYPSE (Flatsedge); experiment: Preemergence weed control under flooded paddy conditions; type: in vivo, Cyperus serotinus; conditions: rated 3-4 weeks after treatment
# Outline: (§3)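 Flooded-pot preemergence screen with silt loam and seeds in the upper 0.5 cm. Dose about 0.0313 to 0.500 kg/ha, delivered into flood water; visual 0-9 score after 3 to 4 weeks.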
# [11] = tested on: MOOVA (Monochoria); experiment: as above; type: in vivo, Monochoria vaginalis; conditions: rated 3-4 weeks after treatment
# Outline: as §3
compound,measurement,setting,value
"CCOC(=O)CN1C(=O)C(C(=O)OCC)SC1=Nc1cc(-n2c(=O)cc(C(F)(F)F)n(C)c2=O)c(F)cc1Cl (centres unmarked) [Compound 127, 5-Carboxy-2-{{2-chloro-5-[3,6-dihydro-3-methyl-2,6-dioxo-4-(trifluoromethyl)-1(2H)-pyrimidinyl]-4-fluorophenyl}imino}-4-oxo-3-thiazolidineacetic acid, diethyl ester]",herbicidal rating CASOB,[1]; rate 0.0156 kg/ha,0.0
same,herbicidal rating CASOB,[1]; rate 0.0313 kg/ha,0.0
same,herbicidal rating CASOB,[1]; rate 0.0625 kg/ha,1.0
same,herbicidal rating CASOB,[1]; rate 0.1250 kg/ha,1.0
same,herbicidal rating CHEAL,[2]; rate 0.0156 kg/ha,4.0
same,herbicidal rating CHEAL,[2]; rate 0.0313 kg/ha,4.0
same,herbicidal rating CHEAL,[2]; rate 0.0625 kg/ha,9.0
same,herbicidal rating CHEAL,[2]; rate 0.1250 kg/ha,9.0
same,herbicidal rating GALAP,[3]; rate 0.0156 kg/ha,0.0
same,herbicidal rating GALAP,[3]; rate 0.0313 kg/ha,0.0
same,herbicidal rating GALAP,[3]; rate 0.0625 kg/ha,2.0
same,herbicidal rating GALAP,[3]; rate 0.1250 kg/ha,3.0
same,herbicidal rating ORYSAT,[4]; rate 0.0156 kg/ha,0.5
same,herbicidal rating ORYSAT,[4]; rate 0.0313 kg/ha,0.5
same,herbicidal rating ORYSAT,[4]; rate 0.0625 kg/ha,0.5
same,herbicidal rating ORYSAT,[4]; rate 0.1250 kg/ha,2.5
same,herbicidal rating ZEAMX,[5]; rate 0.0156 kg/ha,4.5
same,herbicidal rating ZEAMX,[5]; rate 0.0313 kg/ha,4.5
same,herbicidal rating ZEAMX,[5]; rate 0.0625 kg/ha,7.0
same,herbicidal rating ZEAMX,[5]; rate 0.1250 kg/ha,8.0
same,Preemergence herbicidal rating AMBEL,[6]; rate 0.0313 kg/ha,0.0
same,Preemergence herbicidal rating AMBEL,[6]; rate 0.0625 kg/ha,0.0
same,Preemergence herbicidal rating AMBEL,[6]; rate 0.2500 kg/ha,5.0
same,Preemergence herbicidal rating AMBEL,[6]; rate 0.5000 kg/ha,9.0
same,Preemergence herbicidal rating SETVI,[7]; rate 0.0313 kg/ha,0.0
same,Preemergence herbicidal rating SETVI,[7]; rate 0.0625 kg/ha,0.0
same,Preemergence herbicidal rating SETVI,[7]; rate 0.1250 kg/ha,9.0
same,Preemergence herbicidal rating SETVI,[7]; rate 0.2500 kg/ha,9.0
same,Preemergence herbicidal rating SETVI,[7]; rate 0.5000 kg/ha,9.0
same,Preemergence herbicidal rating GLXMAW,[8]; rate 0.0313 kg/ha,0.0
same,Preemergence herbicidal rating GLXMAW,[8]; rate 0.0625 kg/ha,0.0
same,Preemergence herbicidal rating GLXMAW,[8]; rate 0.1250 kg/ha,0.0
same,Preemergence herbicidal rating GLXMAW,[8]; rate 0.2500 kg/ha,4.0
same,Preemergence herbicidal rating GLXMAW,[8]; rate 0.5000 kg/ha,4.0
same,Preemergence herbicidal rating ORYSAT,[9]; rate 0.0313 kg/ha,0.0
same,Preemergence herbicidal rating ORYSAT,[9]; rate 0.0625 kg/ha,0.0
same,Preemergence herbicidal rating ORYSAT,[9]; rate 0.1250 kg/ha,0.0
same,Preemergence herbicidal rating ORYSAT,[9]; rate 0.2500 kg/ha,0.0
same,Preemergence herbicidal rating ORYSAT,[9]; rate 0.5000 kg/ha,3.0
same,"herbicidal effect rating, CYPSE",[10]; 0.0313 kg/ha,0.0
same,"herbicidal effect rating, CYPSE",[10]; 0.0625 kg/ha,0.0
same,"herbicidal effect rating, CYPSE",[10]; 0.1250 kg/ha,0.0
same,"herbicidal effect rating, CYPSE",[10]; 0.2500 kg/ha,0.0
same,"herbicidal effect rating, MOOVA",[11]; 0.0313 kg/ha,3.0
same,"herbicidal effect rating, MOOVA",[11]; 0.0625 kg/ha,3.0
same,"herbicidal effect rating, MOOVA",[11]; 0.1250 kg/ha,5.0
same,"herbicidal effect rating, MOOVA",[11]; 0.2500 kg/ha,7.0
